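Exposure lasted 48 hours, with cells grown in 96-well plates and compounds tested at five concentrations. The concentration for 50% growth inhibition is given as GI50. TGI is the concentration that stops growth completely.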
What was measured:
Test in all cases: NCI anticancer screen, dose series, 48 h
SW-620 colon = system: SW-620 colon
SF-539 CNS = system: SF-539 CNS
SF-268 CNS = system: SF-268 CNS
CAKI-1 renal = system: CAKI-1 renal
BT-549 breast = system: BT-549 breast
SF-295 CNS = system: SF-295 CNS
MDA-MB-231 breast = system: MDA-MB-231 breast
A498 renal = system: A498 renal
COLO 205 colon = system: COLO 205 colon
SK-OV-3 ovarian = system: SK-OV-3 ovarian
RXF 393 renal = system: RXF 393 renal
DU-145 prostate = system: DU-145 prostate
MDA-MB-435 = system: MDA-MB-435
OVCAR-3 ovarian = system: OVCAR-3 ovarian
HCC-2998 colon = system: HCC-2998 colon
UACC-257 melanoma = system: UACC-257 melanoma
OVCAR-5 ovarian = system: OVCAR-5 ovarian
M14 melanoma = system: M14 melanoma
HOP-62 NSCLC = system: HOP-62 NSCLC
ACHN renal = system: ACHN renal
HOP-92 NSCLC = system: HOP-92 NSCLC
KM12 colon = system: KM12 colon
UO-31 renal = system: UO-31 renal
HCT-116 colon = system: HCT-116 colon
786-0 renal = system: 786-0 renal
LOX IMVI melanoma = system: LOX IMVI melanoma
RPMI-8226 leukemia = system: RPMI-8226 leukemia
SNB-19 CNS = system: SNB-19 CNS
SNB-75 CNS = system: SNB-75 CNS
MALME-3M melanoma = system: MALME-3M melanoma
SN12C renal = system: SN12C renal
OVCAR-4 ovarian = system: OVCAR-4 ovarian
SK-MEL-28 melanoma = system: SK-MEL-28 melanoma
SK-MEL-5 melanoma = system: SK-MEL-5 melanoma
NCI-H226 lung = system: NCI-H226 lung
NCI/ADR-RES ovarian = system: NCI/ADR-RES ovarian
CCRF-CEM leukemia = system: CCRF-CEM leukemia
MOLT-4 leukemia = system: MOLT-4 leukemia
SR leukemia = system: SR leukemia
T-47D breast = system: T-47D breast
U251 CNS = system: U251 CNS
HS 578T breast = system: HS 578T breast
TK-10 renal = system: TK-10 renal
NCI-H522 lung = system: NCI-H522 lung
OVCAR-8 ovarian = system: OVCAR-8 ovarian
HL-60(TB) leukemia = system: HL-60(TB) leukemia
SK-MEL-2 melanoma = system: SK-MEL-2 melanoma
A549 NSCLC = system: A549 NSCLC
UACC-62 melanoma = system: UACC-62 melanoma
MCF7 breast = system: MCF7 breast
PC-3 prostate = system: PC-3 prostate
HT29 colon = system: HT29 colon
EKVX NSCLC = system: EKVX NSCLC
K-562 leukemia = system: K-562 leukemia
NCI-H460 lung = system: NCI-H460 lung
IGROV1 ovarian = system: IGROV1 ovarian
HCT-15 colon = system: HCT-15 colon

SMILES: O=C1[C@H]2Cc3c([nH]c4ccccc34)[C@@H](c3ccc(Br)cc3)N2C(=O)CN1C1CCN(CC2CCCCC2)CC1
- GI50 (SW-620 colon): 16.5 µM
- TGI (SW-620 colon): 31.8 µM
- GI50 (SF-539 CNS): 15.5 µM
- TGI (SF-539 CNS): 29.5 µM
- GI50 (SF-268 CNS): 15.3 µM
- TGI (SF-268 CNS): 31.9 µM
- GI50 (CAKI-1 renal): 14.6 µM
- TGI (CAKI-1 renal): 28.2 µM
- GI50 (BT-549 breast): 15.5 µM
- TGI (BT-549 breast): 29.6 µM
- GI50 (SF-295 CNS): 17.5 µM
- TGI (SF-295 CNS): 31.9 µM
- GI50 (MDA-MB-231 breast): 15.2 µM
- TGI (MDA-MB-231 breast): 30.1 µM
- GI50 (A498 renal): 13.7 µM
- TGI (A498 renal): 26.9 µM
- GI50 (COLO 205 colon): 14.3 µM
- TGI (COLO 205 colon): 30.2 µM
- GI50 (SK-OV-3 ovarian): 21.9 µM
- TGI (SK-OV-3 ovarian): 59.3 µM
- GI50 (RXF 393 renal): 11.9 µM
- TGI (RXF 393 renal): 24.2 µM
- GI50 (DU-145 prostate): 17.6 µM
- TGI (DU-145 prostate): 33.6 µM
- GI50 (MDA-MB-435): 16.9 µM
- TGI (MDA-MB-435): 31.6 µM
- GI50 (OVCAR-3 ovarian): 15.3 µM
- TGI (OVCAR-3 ovarian): 29.5 µM
- GI50 (HCC-2998 colon): 14.4 µM
- TGI (HCC-2998 colon): 28 µM
- GI50 (UACC-257 melanoma): 20.2 µM
- TGI (UACC-257 melanoma): 42.7 µM
- GI50 (OVCAR-5 ovarian): 15.1 µM
- TGI (OVCAR-5 ovarian): 28.8 µM
- GI50 (M14 melanoma): 16.9 µM
- TGI (M14 melanoma): 32.9 µM
- GI50 (HOP-62 NSCLC): 16.2 µM
- TGI (HOP-62 NSCLC): 34.6 µM
- GI50 (ACHN renal): 15.3 µM
- TGI (ACHN renal): 28.7 µM
- GI50 (HOP-92 NSCLC): 6.7 µM
- TGI (HOP-92 NSCLC): 21.1 µM
- GI50 (KM12 colon): 17 µM
- TGI (KM12 colon): 34 µM
- GI50 (UO-31 renal): 11.7 µM
- TGI (UO-31 renal): 24.2 µM
- GI50 (HCT-116 colon): 13.6 µM
- TGI (HCT-116 colon): 27.2 µM
- GI50 (786-0 renal): 15.6 µM
- TGI (786-0 renal): 29.4 µM
- GI50 (LOX IMVI melanoma): 18.6 µM
- TGI (LOX IMVI melanoma): 34.3 µM
- GI50 (RPMI-8226 leukemia): 23.4 µM
- TGI (RPMI-8226 leukemia): 53.4 µM
- GI50 (SNB-19 CNS): 15.9 µM
- TGI (SNB-19 CNS): 31.5 µM
- GI50 (SNB-75 CNS): 87.1 µM
- TGI (SNB-75 CNS): > 100 µM
- GI50 (MALME-3M melanoma): 13.8 µM
- TGI (MALME-3M melanoma): 28.3 µM
- GI50 (SN12C renal): 15.8 µM
- TGI (SN12C renal): 30.9 µM
- GI50 (OVCAR-4 ovarian): 17.9 µM
- TGI (OVCAR-4 ovarian): 37.1 µM
- GI50 (SK-MEL-28 melanoma): 16.4 µM
- TGI (SK-MEL-28 melanoma): 30.6 µM
- GI50 (SK-MEL-5 melanoma): 16.1 µM
- TGI (SK-MEL-5 melanoma): 29.9 µM
- GI50 (NCI-H226 lung): 30.4 µM
- TGI (NCI-H226 lung): > 100 µM
- GI50 (NCI/ADR-RES ovarian): 16.7 µM
- TGI (NCI/ADR-RES ovarian): 34.1 µM
- GI50 (CCRF-CEM leukemia): 24.1 µM
- TGI (CCRF-CEM leukemia): 56.5 µM
- GI50 (MOLT-4 leukemia): 20.4 µM
- TGI (MOLT-4 leukemia): 81.6 µM
- GI50 (SR leukemia): 16 µM
- TGI (SR leukemia): 46.1 µM
- GI50 (T-47D breast): 13.9 µM
- TGI (T-47D breast): > 100 µM
- GI50 (U251 CNS): 16.4 µM
- TGI (U251 CNS): 34 µM
- GI50 (HS 578T breast): 18.4 µM
- TGI (HS 578T breast): 45.1 µM
- GI50 (TK-10 renal): 17.8 µM
- TGI (TK-10 renal): 35.1 µM
- GI50 (NCI-H522 lung): 17.9 µM
- TGI (NCI-H522 lung): 39.9 µM
- GI50 (OVCAR-8 ovarian): 22.5 µM
- TGI (OVCAR-8 ovarian): 55.5 µM
- GI50 (HL-60(TB) leukemia): 16.4 µM
- TGI (HL-60(TB) leukemia): 41.8 µM
- GI50 (SK-MEL-2 melanoma): 23 µM
- TGI (SK-MEL-2 melanoma): 58.7 µM
- GI50 (A549 NSCLC): 18.3 µM
- TGI (A549 NSCLC): 39.9 µM
- GI50 (UACC-62 melanoma): 16 µM
- TGI (UACC-62 melanoma): 29.9 µM
- GI50 (MCF7 breast): 10.1 µM
- TGI (MCF7 breast): 22.3 µM
- GI50 (PC-3 prostate): 12.4 µM
- TGI (PC-3 prostate): 25.5 µM
- GI50 (HT29 colon): 14.8 µM
- TGI (HT29 colon): 35 µM
- GI50 (EKVX NSCLC): 13.8 µM
- TGI (EKVX NSCLC): 27.4 µM
- GI50 (K-562 leukemia): 16.5 µM
- TGI (K-562 leukemia): 53.1 µM
- GI50 (NCI-H460 lung): 18.8 µM
- TGI (NCI-H460 lung): 36.1 µM
- GI50 (IGROV1 ovarian): 13.4 µM
- TGI (IGROV1 ovarian): 26.7 µM
- GI50 (HCT-15 colon): 16 µM
- TGI (HCT-15 colon): 30.8 µM

Reference: PubChem BioAssay (NCI)
